According to patent US20250281430A1, “BUPROPION AS A MODULATOR OF DRUG ACTIVITY” (ANTECIP BIOVENTURES II LLC, priority 2022, published 2025):
Where a name gives a salt, the structure may show the parent alone.

How the values were obtained:
[1] = Pharmacokinetics after administration of the subject combination; settings: for Cmax relative to the peak level of bupropion: after administration of the subject combination; for apparent elimination half-life (metabolite): subject combination
[2] = Solubility of the powder in water; assay type: physicochemical

SMILES | Cmax relative to the peak level of bupropion [1] | apparent elimination half-life (metabolite) [1] | dose proportionality of pharmacokinetics (AUC and Cmax) ([1]; co-administered with bupropion, steady state, dextromethorphan 30 to 60 mg, bupropion 75 to 150 mg) | Cmax when administered with food ([1]; subject combination with food) | solubility in water [2]
C[C@H]1NC(C)(C)CO[C@]1(O)c1cccc(Cl)c1 [hydroxybupropion] | approximately 14 times | approximately 35 hours |  |  | 
C[C@H](NC(C)(C)C)[C@@H](O)c1cccc(Cl)c1 [threohydroxybupropion] | about 5 times | ~33 h |  |  | 
COc1ccc2c(c1)[C@]13CCCC[C@@H]1[C@H](C2)N(C)CC3 [dextromethorphan, reference compound] |  |  | nonlinear pharmacokinetics at steady state | unchanged | 
CC(NC(C)(C)C)C(O)c1cccc(Cl)c1 (stereo not drawn) [erythrohydroxybupropion] | approximately equal to | ~44 h |  |  | 
CC(NC(C)(C)C)C(=O)c1cccc(Cl)c1 (racemic) [Bupropion hydrochloride, (±)-1-(3-chlorophenyl)-2-[(1,1-dimethylethyl)amino]-1-propanone hydrochloride] |  |  |  |  | highly soluble in water
